Values belong to the compound of their own block, whether it stands above or below them.
How the values were obtained:
[1] = molecular target: MST3 (Homo sapiens, UniProt Q9Y6E0); test: 33P-radiolabeled kinase assay; format: biochemical
[2] = tested on: CDK1; settings: cited from earlier work
[3] = tested on: CDK2; settings: cited from earlier work

Chain of MST3 (Q9Y6E0 1-431 isoform Q9Y6E0-2): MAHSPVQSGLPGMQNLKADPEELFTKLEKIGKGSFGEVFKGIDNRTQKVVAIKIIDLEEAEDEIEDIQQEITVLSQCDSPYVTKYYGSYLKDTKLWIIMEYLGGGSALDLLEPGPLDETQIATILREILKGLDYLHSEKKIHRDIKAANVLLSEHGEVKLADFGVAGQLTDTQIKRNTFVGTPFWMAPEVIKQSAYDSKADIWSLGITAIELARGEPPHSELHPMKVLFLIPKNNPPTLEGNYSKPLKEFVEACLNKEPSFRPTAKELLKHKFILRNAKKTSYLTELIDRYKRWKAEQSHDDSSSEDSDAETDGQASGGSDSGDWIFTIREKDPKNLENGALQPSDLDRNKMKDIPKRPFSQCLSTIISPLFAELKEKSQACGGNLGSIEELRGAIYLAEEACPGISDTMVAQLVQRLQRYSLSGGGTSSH

IC50 [1]: 260 nM
Compound: COCCOc1ccc2c(c1)ncn2-c1ccc2cccc(N3CCC(N)CC3)c2n1 [CP-673451]

IC50 [1]: 3 nM
Compound: COc1cc(Nc2c(C#N)cnc3cc(OCCCN4CCN(C)CC4)c(OC)cc23)c(Cl)cc1Cl [bosutinib]

fold difference in MST3 inhibitory activity ([1]; less active than the related compound(s) of the same scaffold): 20 fold
Compound: CCN(CC)CCNC(=O)c1c(C)[nH]c(/C=C2\C(=O)Nc3ccc(F)cc32)c1C [sunitinib]

Compound: CDK1/2 inhibitor III
activity against CDK1 [2]: sub-nanomolar
activity against CDK2 [3]: sub-nanomolar
